Experimental data: PMC8070394, “Determination of Colistin in Contents Derived from Gastrointestinal Tract of Feeding Treated Piglet and Broiler” (Antibiotics, 2021)

How the values were obtained:
[1] = pigs, single oral administration, cited from earlier work
Text: Nutrients and drugs are known to be mainly absorbed in the small intestine of animals and humans after oral administration. The dosing regimen of colistin in clinical use depends upon the pharmacokinetics and pharmacodynamics of colistin in humans. Meanwhile, the absorption of oral drugs in the digestive tract is crucial for the dosing regimen as well. Unlike for human medicine, a few studies have been conducted in animals to evaluate the pharmacokinetics and pharmacodynamics of colistin following oral administration. One study has measured colistin in the whole intestin ...

[2] = Colistin in contents of broiler gastrointestinal segments and feces after feeding treatment (UPLC-MS/MS); assay type: in vivo, cobb broilers; conditions: broilers fed colistin 20 mg/kg body weight for 14 days
Method: (§1) Eight weaned piglets (Duroc × Landrace × Large white) 3~4 weeks of age were used in a 14-day feeding trial. First, all piglets were fed with the base diet (Table S1) for an adapting period of 6 days. Subsequently, four piglets fed the base diet were kept as untreated controls, and the other four piglets were fed the base diet, which was supplemented with colistin sulphate at 20 mg/kg of body weight for 14 consecutive days. Thereafter, feces were collected, and the piglets were slaughtered to obtain contents from the swine gastrointestinal segments, including stomach, duodenum, jejunum and cecum. The sixteen cobb broilers 1–3 days in age were selected and fed with a drug-free balanced diet (Table S2) during the 14-day adaption period and the subsequent treatment period. Then, eight broilers were kept as untreated controls, and the other eight broilers were fed with colistin at 20 mg/kg of body weight for 14 consecutive days. At the end of the trial, treated and untreated animals were sacrificed, and the contents derived from the gizzard, proventriculus, duodenum, jejunum, ileum and cecum were recovered. All samples were stored at −80 °C before being analyzed.
(§2) The extraction procedure was based on the methods developed by Fu with some modifications. Briefly, 2 g of samples was lyophilized to dryness and extracted twice with 10 mL of 10% trichloroacetic acid: acetonitrile (40:60, v/v), and the combined extraction solution was adjusted to pH 9.0. Thereafter, the extraction solution was applied to Oasis WCX SPE cartridges which were prewashed with 3 mL of methanol and 3 mL of water. The cartridges were then rinsed with 3 mL of water, 3 mL of methanol and 3 mL of 5% formic acid in water. Eventually, the colistin was eluted with 5 mL of 20% formic acid in methanol. The eluent was evaporated to dryness by vacuum centrifugation at 50 °C and resuspended in 500 μL of deionized water prior to measurement using an UPLC–MS/MS system.
(§3) Chromatography of colistin was conducted with an UltiMate 3000 UPLC system (Thermo Fisher, San Jose, CA, USA) equipped with an Acquity UPLC BEH C18 column (2.1 mm × 100 mm; 1.7 µm particle size; Waters, Milford, MA, USA). The mobile phase A was 0.2% formic acid, 5% acetonitrile in H2O; B was 100% acetonitrile. The colistin was resolved with a linear gradient starting from 95% A solvent to 70% B solvent over 5 min and then to 5% A at 10 min, at a flow rate of 200 µL/min.
(§4) MS spectra were acquired at positive ionization mode with a hybrid quadrupole-obitrap mass spectrometer (Q Exactive, Thermo Fisher, San Jose, CA, USA). The sheath gas flow rate was 25 mL/min; the auxiliary gas flow rate was 15 mL/min; the spray voltage was 3.2 kV; and the temperature of the capillary tube was set to 320 °C. One microscan was used for data acquisition. The resolution settings were full MS target 70,000 and MS/MS target 17,500; normalized CE 20% and 22% were employed for colistin A and colistin B, respectively. Data manipulations were employed using Xcalibur version 4.0 software. Quantitative analyses were conducted in the selective reaction monitoring (SRM) scan mode. The two most abundant fragment ions were selected from each analyte for analysis (Figure S1). The transitions monitored and approximate chromatographic retention times (tR) were as follows: colistin A ([M + 3H]^3+), m/z 390.60 > 101.0696, 241.1860, tR = 7.30 min; colistin B ([M + 3H]^3+), m/z 385.90 > 101.0696, 227.1710, tR = 6.85 min. The mass tolerance was set to 5 ppm for fragment ions.
(§5) Colistin-treated samples and controls were subject to analysis using the proposed method, including stomach, duodenum, jejunum and cecum content samples and feces samples recovered from 4 treated and 4 untreated piglets; gizzard, proventriculus, duodenum, jejunum, ileum and cecum content samples and feces samples from 8 treated and 8 control cobb broilers. […]

[3] = Colistin in contents of swine gastrointestinal segments and feces after feeding treatment (UPLC-MS/MS); assay type: in vivo, piglets (Duroc × Landrace × Large white); conditions: n = 4
Method: as §1, §2, §3, §4, §5

Colistin
peak concentration of colistin in samples from the duodenum to ileum, highest level ([1]; HPLC-Fluorescence after derivatization): ~ 90,000 ng/g | colistin in samples from duodenum to ileum after 4 h ([1]; after 4 h, HPLC-Fluorescence): no colistin was detected | decrease of the amount of colistin from the cecum to feces [2]: at least 5 fold | estimate of colistin in samples from the cecum, regardless of the moisture ([2]; cecum content, dried weight, mean ± standard deviation, n = 8): 15766.0 ± 9249.2 ng/g | average concentration of colistin, cecum ([2]; cecum content, wet weight, mean, n = 8): 4882.9 ng/g | average concentration of colistin, duodenum ([2]; duodenum content, wet weight, mean, n = 8): 383.7 ng/g | estimate of colistin in samples from feces, regardless of the moisture ([2]; feces, dried weight, mean ± standard deviation, n = 8): 823.4 ± 616.4 ng/g | average concentration of colistin in feces samples ([2]; feces, wet weight, mean, n = 8): 147.7 ng/g | average concentration of colistin, gizzard ([2]; gizzard content, wet weight, mean, n = 8): 1145.7 ng/g | average concentration of colistin, ileum ([2]; ileum content, wet weight, mean, n = 8): 2056.1 ng/g | average concentration of colistin, jejunum ([2]; jejunum content, wet weight, mean, n = 8): 1572.3 ng/g | average concentration of colistin, proventriculus ([2]; proventriculus content, wet weight, mean, n = 8): 448.3 ng/g | average amount of colistin in content recovered from the cecum, based on dried weight ([3]; piglets fed colistin sulphate 20 mg/kg body weight for 14 days, cecum content, dried weight): ~ 3300 ng/g | concentration of colistin in content from the cecum ([3]; piglets fed colistin sulphate 20 mg/kg body weight for 14 days, cecum content, wet weight, UPLC-MS/MS, mean ± standard deviation): 398.3 ± 161.2 ng/g | average concentration of colistin in samples from the duodenum ([3]; piglets fed colistin sulphate 20 mg/kg body weight for 14 days, duodenum content, UPLC-MS/MS): ~ 30 ng/g | average amount of colistin in feces, based on dried weight ([3]; piglets fed colistin sulphate 20 mg/kg body weight for 14 days, feces, dried weight): ~ 3300 ng/g | average concentration of colistin in samples from the jejunum ([3]; piglets fed colistin sulphate 20 mg/kg body weight for 14 days, jejunum content, UPLC-MS/MS): ~ 30 ng/g | average concentration of colistin in feces samples ([3]; piglets fed colistin sulphate 20 mg/kg body weight in diet for 14 consecutive days, feces, wet weight, UPLC-MS/MS, mean): approximately 1248.3 ng/g
